Source: patent publication US20220274954A1, “SUBSTITUTED N-PHENYL-N-AMINOUARCILS AND SALTS THEREOF AND USE THEREOF AS HERBICIDAL AGENTS” (Bayer Aktiengesellschaft, priority 2019, published 2022)

What was measured:
Format in all cases: in vivo
[1] = system: Zea mays; assay: Comparative post-emergence crop plant compatibility (with Mero and AMS)
Source text: (§1) Seeds of mono- or dicotyledonous weed plants were sown in pots (diameter 7 cm) with sandy loam soil, germinated under optimium growth conditions and cultivated for 21 days.
(§2) The compounds, formulated in the form of wettable powders (WP) or as emulsion concentrates (EC), were sprayed onto the green parts of the plants as aqueous suspension or emulsion with addition of 1.5 l/ha Mero and 2 kg/ha AMS at a water application rate of 300 l/ha (converted).
(§3) After the test plants had been kept in the greenhouse under optimum growth conditions for 21 days, the activity of the preparations was rated visually in comparison to untreated control plants.
(§4) For example, 100% action=the plants have died and
(§5) 0% action=like control plants.
(§6) Tables C4 and C5 below show the effects of a compound according to the invention (114-442) and a compound from WO2019/101551 (No. 16) on various crop plants and at an application rate corresponding to 6 g/ha and less, which were obtained by the experimental procedure mentioned above.

[2] = system: Glycine max; assay: as above
Source text: as §1, §2, §3, §4, §5, §6

[3] = system: Xanthium strumarium; assay: Comparative post-emergence herbicidal action (with Mero and AMS); details: with 1.5 l/ha Mero and 2 kg/ha AMS, rated after 21 days
Source text: as §1, §2, §3, §4, §5
(§7) Tables C1-C3 below show the effects of a compound according to the invention (I.14-442) and a structurally related compound from WO2019/101551 (No. 16) on various harmful plants and at an application rate corresponding to 18 g/ha and less, which were obtained by the experimental procedure mentioned above.

[4] = system: Polygonum convolvulus; assay: as above; details: with 1.5 l/ha Mero and 2 kg/ha AMS, rated after 21 days
Source text: as §1, §2, §3, §4, §5, §7

[5] = system: Solanum nigrum; assay: as above; details: with 1.5 l/ha Mero and 2 kg/ha AMS, rated after 21 days
Source text: as §1, §2, §3, §4, §5, §7

For CCOC(=O)COc1ncccc1Oc1cc(-n2c(=O)c(C)c(C(F)(F)F)n(C)c2=O)c(F)cc1Cl [No. 16], the “Zea mays (efficacy in %)” value ([1]; application rate 2 g/ha) was 40%, the “Zea mays (efficacy in %)” value ([1]; application rate 6 g/ha) was 50% and the “Glycine max (efficacy in %)” value ([2]; application rate 2 g/ha) was 40%. For the same molecule, the “Glycine max (efficacy in %)” value ([2]; application rate 6 g/ha) was 50%, the “Xanthium strumarium (efficacy in %)” value ([3]; application rate 6 g/ha) was 50% and the “Xanthium strumarium (efficacy in %)” value ([3]; application rate 18 g/ha) was 85%. The “Polygonum convolvulus (efficacy in %)” value ([4]; application rate 6 g/ha) was 65%, the “Polygonum convolvulus (efficacy in %)” value ([4]; application rate 18 g/ha) was 75% and the “Solanum nigrum (efficacy in %)” value ([5]; application rate 6 g/ha) was 80%. For the same molecule, the “Solanum nigrum (efficacy in %)” value ([5]; application rate 18 g/ha) was 80%.
